In the supplement of paper PMC10307832 one finds relative viability data, which are given here for one cell line.

Holding throughout (test): relative viability (nuclei count vs DMSO), 5 days (fraction); higher = more cells survive
Compound in test [1]: CC1=CC=C(C=C1)C(=O)CN2C3=C(CCCC3)SC2=N [Pifithrin_alpha] + Cc1nc(NC(=O)N2CCC[C@H]2C(N)=O)sc1-c1ccnc(C(C)(C)C(F)(F)F)c1 [Alpelisib] (partner 2 µM)
The essentials: (§1)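 Lung cancer cell lines were pin-tool dosed in 1536-well plates on the day after seeding, with either a lone drug or a fixed anchor-drug dose plus five library-drug doses (not always all listed) in √10 steps. Nuclei were counted on 4× images after 5 days. Relative viability is the ratio of treated-well to vehicle-well nuclei counts, with each value a median of duplicate plates.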

Compound in the test “Bemcentinib + Trametinib”: Nc1nc(Nc2ccc3c(c2)CC[C@@H](N2CCCC2)CC3)nn1-c1cc2c(nn1)-c1ccccc1CCC2 [Bemcentinib] + CC(=O)Nc1cccc(-n2c(=O)n(C3CC3)c(=O)c3c(Nc4ccc(I)cc4F)n(C)c(=O)c(C)c32)c1 [Trametinib] (partner 0.02 µM)
The method, boiled down: as §1

Compound in the test “Axitinib + Luminespib”: CNC(=O)c1ccccc1Sc1ccc2c(/C=C/c3ccccn3)n[nH]c2c1 [Axitinib] + CCNC(=O)c1noc(-c2cc(C(C)C)c(O)cc2O)c1-c1ccc(CN2CCOCC2)cc1 [Luminespib] (partner 0.01 µM)
The essentials:
as §1

Compound in the test “Bemcentinib + Pictilisib”: Nc1nc(Nc2ccc3c(c2)CC[C@@H](N2CCCC2)CC3)nn1-c1cc2c(nn1)-c1ccccc1CCC2 [Bemcentinib] + CS(=O)(=O)N1CCN(Cc2cc3nc(-c4cccc5[nH]ncc45)nc(N4CCOCC4)c3s2)CC1 [Pictilisib] (partner 1 µM)
The method, boiled down: as §1

In the case of NCI-H650, the relative viability in test [1] (first compound 3.162 µM) amounted to 1.12; in test [1] (first compound 10 µM), 1.13; in test [1] (first compound 31.62 µM), 0.755; in test [1] (first compound 100 µM) it was 1.09; with Bemcentinib + Trametinib (first compound 0.04 µM) it was 1.08; with Bemcentinib + Trametinib (first compound 0.1265 µM) it was 0.993. Also, the relative viability worked out at 0.963 with Bemcentinib + Trametinib (first compound 0.4 µM); 0.947 with Bemcentinib + Trametinib (first compound 1.265 µM); 0.966 with Bemcentinib + Trametinib (first compound 4 µM); 0.798 in the test with Axitinib + Luminespib (first compound 0.005 µM); 0.766 with Axitinib + Luminespib (first compound 0.01581 µM); 0.589 in the test with Axitinib + Luminespib (first compound 0.05 µM). The relative viability with Axitinib + Luminespib (first compound 0.1581 µM) amounted to 0.764; in the test with Axitinib + Luminespib (first compound 0.5 µM), 0.822; in the test with Bemcentinib + Pictilisib (first compound 0.04 µM), 0.835; with Bemcentinib + Pictilisib (first compound 0.1265 µM) it was 1.08; with Bemcentinib + Pictilisib (first compound 0.4 µM), 0.887; with Bemcentinib + Pictilisib (first compound 1.265 µM) it was 0.766. Moreover, in the test with Bemcentinib + Pictilisib (first compound 4 µM), the relative viability is 0.827.
